Tests used:
[1] = Particle size and PDI of lipid nanoparticles by dynamic light scattering; type: physicochemical; settings: lipid nanoparticle with the cationic lipid, cholesterol, DSPC, DMG-PEG2000 (50/38.5/10/1.5 mol%), luciferase mRNA, N/P 6
Method: (§1) Lipid nanoparticles were prepared by (1) dissolving and mixing ionizable lipid compounds, cholesterol, phospholipids and polyethylene glycolated lipids in ethanol at (molar percentages) 50%, 38.5%, 10% and 1.5%, respectively; (2) dissolving the mRNA active ingredient in 25 mM sodium acetate solution (pH=4.5); (3) using an automated high-throughput microfluidic system to mix the organic phase containing the lipid mixture and the aqueous phase containing the mRNA component in the flow ratio range of 1:1 to 1:4 at a mixing speed of 10 mL/min to 18 mL/min; (4) the prepared lipid nanoparticles (N/P ratio of 6) were diluted with phosphate buffer solution and the nanoparticle solutions were ultrafiltered to the original preparation volume using ultrafiltration tubes (purchased from Millipore) with a cut-off molecular weight of 30 kDa; and (5) the obtained nanoparticles were filtered through a sterile 0.2 μm filter membrane and then stored in a sealed glass vial at low temperature.
(§2) The particle size and particle size dispersity index (PDI) of the prepared lipid nanoparticles were measured using a Zetasizer Pro (purchased from Malvern Instruments Ltd) and a DynaPro NanoStar (purchased from Wyatt) dynamic light scattering instrument. The degree of RNA encapsulation by lipid nanoparticles was characterized by the Encapsulation Efficiency %, which reflects the degree of binding of lipid nanoparticles to RNA fragments. This parameter was measured by the method of Quant-It™ RiboGreen RNA Assay (purchased from Invitrogen). Lipid nanoparticle samples were diluted in TE buffer (10 mM Tris-HCl, 1 mM EDTA, pH=7.5). A portion of the sample solution was removed, to which 0.5% Triton (Triton X-100) was added, and then allowed to stand at 37° C. for 30 minutes. Immediately after the addition of RIBOGREEN® reaction solution, the fluorescence values were read on a Varioskan LUX multifunctional microplate reader (purchased from Thermofisher) at 485 nm for absorption and 528 nm for emission to give the encapsulation efficiency values.

[2] = Encapsulation efficiency of lipid nanoparticles, Quant-It RiboGreen RNA Assay; type: physicochemical; settings: lipid nanoparticle with the cationic lipid, luciferase mRNA
Method: as §1, §2

Which “Particle size (nm)” value [1] does the source give for `CCCCCCCCCCOC(=O)C(C)(C)CCCCCC(CCCCCC(C)(C)C(=O)OCCCCCCCCCC)OC(=O)CCN(C)C` [Compound 1] here?
The value was 80.07 nm.

And the “Particle size dispersity (PDI)” value [1]?
Its value is 0.06.

And the “Encapsulation efficiency (%)” value [2]?
Its value is 91.54%.

With `CCCCCCCCOC(=O)C(C)(C)CCCCCC(CCCCCC(C)(C)C(=O)OCCCCCCCC)OC(=O)CCN(C)C` [Compound 2] as the compound, how does the “Particle size (nm)” value [1] read?
Its value is 229.35 nm.

What about the “Particle size dispersity (PDI)” value [1] of the same compound?
Its value is 0.03.

And the “Encapsulation efficiency (%)” value [2]?
The value was 79.14%.

For `CCCCCCCCCOC(=O)C(C)(C)CCCCCC(CCCCCC(C)(C)C(=O)OCCCCCCCCC)OC(=O)CCN(C)C` [Compound 3], which “Particle size (nm)” value [1] is on record?
The value was 133.80 nm.

What about the “Particle size dispersity (PDI)” value [1] of the same compound?
Its value is 0.04.

And the “Encapsulation efficiency (%)” value [2]?
Its value is 86.88%.

For `CC(C)CCCC(C)CCOC(=O)C(C)(C)CCCCCC(CCCCCC(C)(C)C(=O)OCCC(C)CCCC(C)C)OC(=O)CCN(C)C` (stereo not drawn) [Compound 6], which “Particle size (nm)” value [1] is on record?
Its value is 106.18 nm.

And the “Particle size dispersity (PDI)” value [1]?
The value was 0.05.

What about the “Encapsulation efficiency (%)” value [2] of the same compound?
Its value is 90.26%.

Which results are given for `CC/C=C\CCCCCOC(=O)C(C)(C)CCCCCC(CCCCCC(C)(C)C(=O)OCCCCC/C=C\CC)OC(=O)CCN(C)C` [Compound 7]?
Particle size (nm) [1]: 203.67 nm; Particle size dispersity (PDI) [1]: 0.04; Encapsulation efficiency (%) [2]: 69.51%

With `CCCCCCCCCCNC(=O)C(C)(C)CCCCCC(CCCCCC(C)(C)C(=O)NCCCCCCCCCC)OC(=O)CCN(C)C` [Compound 8] as the compound, how does the “Particle size (nm)” value [1] read?
The value was 127.82 nm.

And the “Particle size dispersity (PDI)” value [1]?
Its value is 0.07.

What about the “Encapsulation efficiency (%)” value [2] of the same compound?
Its value is 60.36%.

Which results are given for `CCCCCCCCCNC(=O)C(C)(C)CCCCCC(CCCCCC(C)(C)C(=O)NCCCCCCCCC)OC(=O)CCN(C)C` [Compound 9]?
Particle size (nm) [1]: 352.82 nm; Particle size dispersity (PDI) [1]: 0.07; Encapsulation efficiency (%) [2]: 19.41%

With `CCCCCCCCCCCCNC(=O)C(C)(C)CCCCCC(CCCCCC(C)(C)C(=O)NCCCCCCCCCCCC)OC(=O)CCN(C)C` [Compound 10] as the compound, how does the “Particle size (nm)” value [1] read?
Its value is 118.59 nm.

What about the “Particle size dispersity (PDI)” value [1] of the same compound?
Its value is 0.07.

And the “Encapsulation efficiency (%)” value [2]?
Its value is 53.83%.

With `CCCCCCCCC(CCCCCCCC)NC(=O)C(C)(C)CCCCCC(CCCCCC(C)(C)C(=O)NC(CCCCCCCC)CCCCCCCC)OC(=O)CCN(C)C` [Compound 11] as the compound, how does the “Particle size (nm)” value [1] read?
Its value is 46.49 nm.

And the “Particle size dispersity (PDI)” value [1]?
Its value is 0.03.

What about the “Encapsulation efficiency (%)” value [2] of the same compound?
Its value is 95.61%.

For `CCCCCCCCCN(CCCCCCCCC)C(=O)C(C)(C)CCCCCC(CCCCCC(C)(C)C(=O)N(CCCCCCCCC)CCCCCCCCC)OC(=O)CCN(C)C` [Compound 12], which “Particle size (nm)” value [1] is on record?
Its value is 89.34 nm.

What about the “Particle size dispersity (PDI)” value [1] of the same compound?
Its value is 0.07.

What about the “Encapsulation efficiency (%)” value [2] of the same compound?
Its value is 85.02%.

For `CCCCCCCCCCOC(=O)C(C)(C)CCCCCC(CCCCCC(C)(C)C(=O)OCCCCCCCCCC)OC(=O)CN(C)C` [Compound 17], which “Particle size (nm)” value [1] is on record?
The value was 81.43 nm.

And the “Particle size dispersity (PDI)” value [1]?
The value was 0.12.

And the “Encapsulation efficiency (%)” value [2]?
Its value is 30.95%.

For `CCCCCCCCCCOC(=O)C(C)(C)CCCCCC(CCCCCC(C)(C)C(=O)OCCCCCCCCCC)OC(=O)CCCN(C)C` [Compound 18], which “Particle size (nm)” value [1] is on record?
The value was 161.29 nm.

What about the “Particle size dispersity (PDI)” value [1] of the same compound?
The value was 0.05.

What about the “Encapsulation efficiency (%)” value [2] of the same compound?
The value was 87.86%.

For `CCCCCCCCOC(=O)C(C)(C)CCCCCC(CCCCCC(C)(C)C(=O)OCCCCCCCC)OC(=O)CCCN(C)C` [Compound 19], which “Particle size (nm)” value [1] is on record?
Its value is 135.15 nm.

And the “Particle size dispersity (PDI)” value [1]?
The value was 0.19.

What about the “Encapsulation efficiency (%)” value [2] of the same compound?
The value was 67.96%.

Which “Particle size (nm)” value [1] does the source give for `CCCCCCCC#CCOC(=O)C(C)(C)CCCCCC(CCCCCC(C)(C)C(=O)OCC#CCCCCCCC)OC(=O)CCCN(C)C` [Compound 23] here?
The value was 151.35 nm.

And the “Particle size dispersity (PDI)” value [1]?
Its value is 0.07.

What about the “Encapsulation efficiency (%)” value [2] of the same compound?
Its value is 70.22%.

Which results are given for `CCCCCCC#CCCOC(=O)C(C)(C)CCCCCC(CCCCCC(C)(C)C(=O)OCCC#CCCCCCC)OC(=O)CCCN(C)C` [Compound 24]?
Particle size (nm) [1]: 133.72 nm; Particle size dispersity (PDI) [1]: 0.04; Encapsulation efficiency (%) [2]: 60.98%

Which “Particle size (nm)” value [1] does the source give for `CCCCC#CCCCCOC(=O)C(C)(C)CCCCCC(CCCCCC(C)(C)C(=O)OCCCCC#CCCCC)OC(=O)CCCN(C)C` [Compound 25] here?
The value was 236.90 nm.

And the “Particle size dispersity (PDI)” value [1]?
The value was 0.06.

What about the “Encapsulation efficiency (%)” value [2] of the same compound?
Its value is 32.43%.

With `CCCCCCC/C=C\COC(=O)C(C)(C)CCCCCC(CCCCCC(C)(C)C(=O)OC/C=C\CCCCCCC)OC(=O)CCCN(C)C` [Compound 26] as the compound, how does the “Particle size (nm)” value [1] read?
Its value is 96.69 nm.

And the “Particle size dispersity (PDI)” value [1]?
The value was 0.05.

What about the “Encapsulation efficiency (%)” value [2] of the same compound?
The value was 81.29%.

For `CCCCCC/C=C\CCOC(=O)C(C)(C)CCCCCC(CCCCCC(C)(C)C(=O)OCC/C=C\CCCCCC)OC(=O)CCCN(C)C` [Compound 27], which “Particle size (nm)” value [1] is on record?
Its value is 105.70 nm.

What about the “Particle size dispersity (PDI)” value [1] of the same compound?
Its value is 0.05.

What about the “Encapsulation efficiency (%)” value [2] of the same compound?
Its value is 88.99%.

Which “Particle size (nm)” value [1] does the source give for `CCCCCCCCCCSC(=O)C(C)(C)CCCCCC(CCCCCC(C)(C)C(=O)SCCCCCCCCCC)OC(=O)CCN(C)C` [Compound 33] here?
The value was 105.84 nm.

What about the “Particle size dispersity (PDI)” value [1] of the same compound?
Its value is 0.04.

And the “Encapsulation efficiency (%)” value [2]?
Its value is 88.67%.

With `CCCCCCCCCCSC(=O)C(C)(C)CCCCCC(CCCCCC(C)(C)C(=O)SCCCCCCCCCC)OC(=O)CCCN(C)C` [Compound 34] as the compound, how does the “Particle size (nm)” value [1] read?
The value was 104.71 nm.

And the “Particle size dispersity (PDI)” value [1]?
Its value is 0.04.

And the “Encapsulation efficiency (%)” value [2]?
The value was 90.29%.

Which results are given for `CCCCCCCCCCSC(=O)C(C)(C)CCCCCC(CCCCCC(C)(C)C(=O)SCCCCCCCCCC)OC(=O)CCCCCN(C)C` [Compound 36]?
Particle size (nm) [1]: 88.33 nm; Particle size dispersity (PDI) [1]: 0.07; Encapsulation efficiency (%) [2]: 97.52%

With `CCCCCCCCCCSC(=O)C(C)(C)CCCCCC(CCCCCC(C)(C)C(=O)OCCCCCCCCC)OC(=O)CCCN(C)C` (stereo not drawn) [Compound 40] as the compound, how does the “Particle size (nm)” value [1] read?
Its value is 83.90 nm.

And the “Particle size dispersity (PDI)” value [1]?
Its value is 0.05.

What about the “Encapsulation efficiency (%)” value [2] of the same compound?
Its value is 97.06%.

Which results are given for `CCCCCCC#CCOC(=O)C(C)(C)CCCCCC(CCCCCC(C)(C)C(=O)OCCCCCCCCC)OC(=O)CCCN(C)C` (stereo not drawn) [Compound 42]?
Particle size (nm) [1]: 152.04 nm; Particle size dispersity (PDI) [1]: 0.07; Encapsulation efficiency (%) [2]: 71.95%

For `CCCCCCCCCCOC(=O)C(C)(C)CCCCCC(CCCCCC(C)(C)C(=O)OCCCCCCCCCC)OC(=O)CCN1CCOCC1` [Compound 90], which “Particle size (nm)” value [1] is on record?
Its value is 18.17 nm.

And the “Particle size dispersity (PDI)” value [1]?
Its value is 0.05.

What about the “Encapsulation efficiency (%)” value [2] of the same compound?
Its value is 83.21%.

For `CCCCCCCCCCOC(=O)C(C)(C)CCCCCC(CCCCCC(C)(C)C(=O)OCCCCCCCCCC)OC(=O)CN1CCOCC1` [Compound 91], which “Particle size (nm)” value [1] is on record?
The value was 32.61 nm.

What about the “Particle size dispersity (PDI)” value [1] of the same compound?
Its value is 0.05.

What about the “Encapsulation efficiency (%)” value [2] of the same compound?
The value was 102.99%.

For `CCCCCCCCCCOC(=O)C(C)(C)CCCCCC(CCCCCC(C)(C)C(=O)OCCCCCCCCCC)OC(=O)CCN1CCCC1` [Compound 92], which “Particle size (nm)” value [1] is on record?
Its value is 107.56 nm.

What about the “Particle size dispersity (PDI)” value [1] of the same compound?
The value was 0.05.

And the “Encapsulation efficiency (%)” value [2]?
Its value is 91.66%.

What does the source list for `CCCCCCC/C=C\COC(=O)CC(C)(C)CCCCC(CCCCC(C)(C)CC(=O)OCC(CCCCC)CCCCCCC)OC(=O)CCCN(C)C` (stereo not drawn) [Compound 98]?
Particle size (nm) [1]: 107.87 nm; Particle size dispersity (PDI) [1]: 0.13; Encapsulation efficiency (%) [2]: 93.28%

For `CCCCCCCCOC(=O)C(C)(C)CCCCCC(CCCCCC(C)(C)C(=O)OCCCCCCCC)OC(=O)C1CCN(C(C)C)CC1` [Compound 101], which “Particle size (nm)” value [1] is on record?
The value was 152.45 nm.

And the “Particle size dispersity (PDI)” value [1]?
The value was 0.06.

What about the “Encapsulation efficiency (%)” value [2] of the same compound?
Its value is 76.09%.

With `CCCCCCCCCOC(=O)C(C)(C)CCCCCC(CCCCCC(C)(C)C(=O)OCCCCCCCCC)OC(=O)C1CCN(C)CC1` [Compound 102] as the compound, how does the “Particle size (nm)” value [1] read?
The value was 102.18 nm.

And the “Particle size dispersity (PDI)” value [1]?
The value was 0.03.

And the “Encapsulation efficiency (%)” value [2]?
The value was 90.03%.

Source: patent US12162819B2, “Ionizable lipid compounds” (Beijing Jitai Pharmaceutical Technology Co., Ltd., priority 2022, dated 2024)
